15 substances from US20240150423A1, “GLP-1 ANALOGUE-MODIFIED DIMERS WITH DIFFERENT CONFIGURATIONS, PREPARATION METHOD THEREOF, AND APPLICATION THEREOF IN TREATMENT OF TYPE II DIABETES” (Nanjing Finepeptide Biopharmaceutical Co.,Ltd, priority 2019, published 2024) can be followed below.

Non-standard residues stand in square brackets, D forms with d. No end group written: not given here. bAib = not defined here; βAib = beta-Aib residue; Aib = CC(C)(N)C(=O)O; βAla = NCCC(=O)O

One assay concerns Normal Kunming (KM) mice. The experiment in a line: multiple OGTT (mOGTT): hypoglycemic duration after a single administration. It is filed as in vivo. The conditions noted are these: monomeric peptides, single injection at the same dose (1.126 nmol), subcutaneous. From the text: • 1. Methods: Normal Kunming (KM) mice (purchased from Guangdong Animal Center) were used for oral glucose tolerance test (OGTT) to obtain the hypoglycemic activity and durability of drug. […] The blood glucose meter and blood glucose test paper were from Bayer […]. The average blood glucose of each group was used as an evaluation standard: When the average blood glucose of experimental group was higher than that of the NaCl control group for two times, the measurement stopped and the hypoglycemic period compared to the blank control group was the effective duration. • 2. Results • 2.1 single OGTTs: after a single administration, the mice were orally administered glucose once and measured the blood glucose from the tail blood at 0, 10, 20, 40, 60 and 120 min. […] The duration of each monomer group was about 1⁄2-1⁄4 of the duration of its corresponding dimer group. […] Therefore, the 2G3 peptide was selected for treating type II diabetes (T2D) in vivo and subsequent experiments.
Consider “His-aAib-Glu-Gly-Thr-Phe-Thr-Ser-Asp-Val-Ser-Cys-Tyr-Leu-Glu-Gly-Gln-Ala-Ala-Lys[N-ϵ-(N-α-Palmitoyl-L-γ-glutamyl)]-Glu-Phe-Ile-Ala-Trp-Leu-Val-Arg-Gly-Arg-Gly-OH (HXEGTFTSDVSCYLEGQAAXEFIAWLVRGRG; Aib; palmitoyl-gamma-Glu on Lys; C-terminal acid; Sequence is synthesized; (2)..(2) Xaa is aAib; (20)..(20) Xaa 26Lys[N-e-(N-a-palmitoyl-L-g-glutamyl)]; (31)..(31) C-terminal) [G6 series 45]”, for which the “Hypoglycemic” value turned out to be 4 days.
“His-aAib-Glu-Gly-Thr-Phe-Thr-Cys-Asp-Val-Ser-Ser-Tyr-Leu-Glu-Gly-Gln-Ala-Ala-Lys-Glu-Phe-Ile-Ala-Trp-Leu-Val-Lys-aAib-Arg-NH2 (H[Aib]EGTFTCDVSSYLEGQAAKEFIAWLVK[Aib]R-NH2; N-terminus assumed; SMILES CC[C@H](C)[C@H](NC(=O)[C@H](Cc1ccccc1)NC(=O)[C@H](CCC(=O)O)NC(=O)[C@H](CCCCN)NC(=O)[C@H](C)NC(=O)[C@H](C)NC(=O)[C@H](CCC(N)=O)NC(=O)CNC(=O)[C@H](CCC(=O)O)NC(=O)[C@H](CC(C)C)NC(=O)[C@H](Cc1ccc(O)cc1)NC(=O)[C@H](CO)NC(=O)[C@H](CO)NC(=O)[C@@H](NC(=O)[C@H](CC(=O)O)NC(=O)[C@H](CS)NC(=O)[C@@H](NC(=O)[C@H](Cc1ccccc1)NC(=O)[C@@H](NC(=O)CNC(=O)[C@H](CCC(=O)O)NC(=O)C(C)(C)NC(=O)[C@@H](N)Cc1c[nH]cn1)[C@@H](C)O)[C@@H](C)O)C(C)C)C(=O)N[C@@H](C)C(=O)N[C@@H](Cc1c[nH]c2ccccc12)C(=O)N[C@@H](CC(C)C)C(=O)N[C@H](C(=O)N[C@@H](CCCCN)C(=O)NC(C)(C)C(=O)N[C@@H](CCCNC(=N)N)C(N)=O)C(C)C) [G8 series 65]”: the “Hypoglycemic” value worked out at 2 days.
As to “His-Ala-Glu-Gly-Thr-Phe-Thr-Ser-Asp-Val-Ser-Cys-Tyr-Leu-Glu-Gly-Gln-Ala-Ala-Lys[N-ϵ-(N-α-oleoyl)]-Glu-Phe-Ile-Ala-Trp-Leu-Val-Arg-Gly-Arg-Gly-NH2 (HAEGTFTSDVSCYLEGQAAXEFIAWLVRGRG; not fully specified; oleoyl on Lys; C-terminal amide; Sequence is synthesized; (20)..(20) Xaa is 26Lys[N-e-(N-a-oleoyl-L-g-glutamyl)]; (31)..(31) N-terminal) [G4 series 33]”, the “Hypoglycemic” value came out at 7 days.
Same read-out and setting: as for “His-βAla-Glu-Gly-Thr-Phe-Thr-Ser-Asp-Val-Cys-Ser-Tyr-Leu-Glu-Gly-Gln-Ala-Ala-Lys[N-ϵ-(N-α-oleoyl)]-Glu-Phe-Ile-Ala-Trp-Leu-Val-Arg-Gly-Arg-Gly-NH2 (HXEGTFTSDVCSYLEGQAAXEFIAWLVRGRG; β-amino acid; oleoyl on Lys; C-terminal amide; Sequence is synthesized; (2)..(2) Xaa is bAla; (20)..(20) Xaa is 26Lys[N-e-(N-a-oleoyl-L-g-glutamyl)]; (31)..(31) N-terminal) [G4 series 31]”, the figure is 5 days; as for “His-βAib-Glu-Gly-Thr-Phe-Thr-Cys-Asp-Val-Ser-Ser-Tyr-Leu-Glu-Gly-Gln-Ala-Ala-Lys-Glu-Phe-Ile-Ala-Trp-Leu-Val-Arg-βAib-Arg-NH2 (H[βAib]EGTFTCDVSSYLEGQAAKEFIAWLVR[βAib]R-NH2; also: disulfide-linked homodimer via Cys) [G8 series 67]”, 2 days; as for “His-βAla-Glu-Gly-Thr-Phe-Thr-Cys-Asp-Val-Ser-Ser-Tyr-Leu-Glu-Gly-Gln-Ala-Ala-Lys-Glu-Phe-Ile-Ala-Trp-Leu-Val-Arg-βAla-Arg-NH2 (H[βAla]EGTFTCDVSSYLEGQAAKEFIAWLVR[βAla]R-NH2; not fully specified; printed as His-βAla-Glu-Gly-Thr-Phe-Thr-Cys-Asp-Val-Ser-Ser-Tyr-Leu-Glu-Gly-Gln-Ala-Ala-Lys-Glu-Phe-Ile-Ala-Trp-Leu-Val-Arg-βAla-Arg-NH2) [G8 series 69]”, 2 days.
On the same count and under the same terms, the result for “His-aAib-Glu-Gly-Thr-Phe-Thr-Ser-Asp-Val-Cys-Ser-Tyr-Leu-Glu-Gly-Gln-Ala-Ala-Lys[N-ϵ-(N-α-Palmitoyl-γ-glutamyl)]-Glu-Phe-Ile-Ala-Trp-Leu-Val-Arg-Gly-Arg-Gly-OH (HXEGTFTSDVCSYLEGQAAXEFIAWLVRGRG; αAib; palmitoyl-γ-glutamyl on Lys; C-terminal acid; Sequence is synthesized; (2)..(2) Xaa is aAib; (20)..(20) Xaa is 26Lys[N-e-(N-a-Palmitoyl-g-glutamyl)]; (31)..(31) C-terminal) [G2 series 11]” reads 4 days; that for “His-aAib-Glu-Gly-Thr-Phe-Thr-Ser-Asp-Val-Cys-Ser-Tyr-Leu-Glu-Gly-Gln-Ala-Ala-Lys[N-ϵ-(N-α-oleoyl-L-γ-glutamyl)]-Glu-Phe-Ile-Ala-Trp-Leu-Val-Arg-Gly-Arg-Gly-OH (HXEGTFTSDVCSYLEGQAAXEFIAWLVRGRG; αAib; oleoyl-γ-glutamyl on Lys; C-terminal acid; Sequence is synthesized; (2)..(2) Xaa is aAib; (20)..(20) Xaa is 26Lys[N-e-(N-a-oleoyl-L-g-glutamyl)]; (31)..(31) C-terminal) [G2 series 14]”, 4 days; that for “His-βAla-Glu-Gly-Thr-Phe-Thr-Ser-Asp-Val-Cys-Ser-Tyr-Leu-Glu-Gly-Gln-Ala-Ala-Lys-Glu-Phe-Ile-Ala-Trp-Leu-Val-Arg-βAla-Arg-NH2 (H[βAla]EGTFTSDVCSYLEGQAAKEFIAWLVR[βAla]R-NH2; not fully specified; printed as His-βAla-Glu-Gly-Thr-Phe-Thr-Ser-Asp-Val-Cys-Ser-Tyr-Leu-Glu-Gly-Gln-Ala-Ala-Lys-Glu-Phe-Ile-Ala-Trp-Leu-Val-Arg-βAla-Arg-NH2) [G2 series 19]”, 3 days.
As for “His-βAla-Glu-Gly-Thr-Phe-Thr-Ser-Asp-Val-Ser-Cys-Tyr-Leu-Glu-Gly-Gln-Ala-Ala-Lys[N-ϵ-(N-α-Palmitoyl-L-γ-glutamyl)]-Glu-Phe-Ile-Ala-Trp-Leu-Val-Lys[N-ϵ-(N-α-Palmitoyl-L-γ-glutamyl)]-Gly-Arg-Gly-NH2 (HXEGTFTSDVSCYLEGQAAXEFIAWLVXGRG; not fully specified; beta-amino acid; two palmitoyl-gamma-Glu on Lys; amide; Sequence is synthesized; (2)..(2) Xaa is bAla; (20)..(20) Xaa is 26Lys[N-e-(N-a-palmitoyl-L-g-glutamyl)]; (28)..(28) Xaa is 26Lys[N-e-(N-a-palmitoyl-L-g-glutamyl)]; (31)..(31) N-terminal) [G5 series 44]”, the “Hypoglycemic” value came out at 2 days.
With “His-Ala-Glu-Gly-Thr-Phe-Thr-Ser-Asp-Val-Ser-Cys-Tyr-Leu-Glu-Gly-Gln-Ala-Ala-Lys[N-ϵ-(N-α-oleoyl-L-γ-glutamyl)]-Glu-Phe-Ile-Ala-Trp-Leu-Val-Arg-Gly-Arg-Gly-OH (HAEGTFTSDVSCYLEGQAAXEFIAWLVRGRG; oleoyl-γ-glutamyl on Lys; C-terminal acid; Sequence is synthesized; (20)..(20) Xaa is 26Lys[N-e-(N-a-oleoyl-L-g-glutamyl)]; (31)..(31) C-terminal) [G3 series 21]”, the “Hypoglycemic” value came to 4 days.
“His-Ala-Glu-Gly-Thr-Phe-Thr-Cys-Asp-Val-Ser-Ser-Tyr-Leu-Glu-Gly-Gln-Ala-Ala-Lys[N-α-(N-α-oleoyl-L-γ-glutamyl)]-Glu-Phe-Ile-Ala-Trp-Leu-Val-Arg-Gly-Arg-Gly-NH2 (HAEGTFTCDVSSYLEGQAAXEFIAWLVRGRG; oleoyl-gamma-Glu on Lys; C-terminal amide; Sequence is synthesized; (20)..(20) Xaa is 26Lys[N-e-(N-a-oleoyl-L-g-glutamyl)]; (31)..(31) N-terminal) [G8 series 59]”: the “Hypoglycemic” value was 3 days.
Same read-out and setting: the result for “His-Ala-Glu-Gly-Thr-Phe-Thr-Ser-Asp-Val-Ser-Cys-Tyr-Leu-Glu-Gly-Gln-Ala-Ala-Lys[N-ϵ-(N-α-Palmitoyl-L-γ-glutamyl)]-Glu-Phe-Ile-Ala-Trp-Leu-Val-Arg-Gly-Arg-Gly-NH2 (HAEGTFTSDVSCYLEGQAAXEFIAWLVRGRG; palmitoyl-γ-glutamyl on Lys; C-terminal amide; Sequence is synthesized; (20)..(20) Xaa is 26Lys[N-e-(N-a-palmitoyl-L-g-glutamyl)]; (31)..(31) N-terminal) [G3 series 22]” reads 6 days; that for “His-βAib-Glu-Gly-Thr-Phe-Thr-Ser-Asp-Val-Ser-Cys-Tyr-Leu-Glu-Gly-Gln-Ala-Ala-Lys[N-ϵ-(N-α-oleoyl-L-γ-glutamyl)]-Glu-Phe-Ile-Ala-Trp-Leu-Val-Arg-Gly-Arg-Gly-NH2 (HXEGTFTSDVSCYLEGQAAXEFIAWLVRGRG; not fully specified; beta-Aib; oleoyl-gamma-Glu on Lys; C-terminal amide; Sequence is synthesized; (2)..(2) Xaa is bAib; (20)..(20) Xaa is 26Lys[N-e-(N-a-oleoyl-L-g-glutamyl)]; (31)..(31) N-terminal) [G6 series 49]”, 5 days.

The same assay, now with this note: single injection at the same dose (1.126 nmol), subcutaneous.
“2G8 series 67: disulfide-linked homodimer of monomer SEQ ID NO: 67 (H[bAib]EGTFTCDVSSYLEGQAAKEFIAWLVR[bAib]R; reading uncertain; also: disulfide-linked homodimer of two chains, disulfide at 8, other end not in the chain)”: the “Hypoglycemic duration” value came to 3 days.
